The source of these data is patent US8748461B2, “Metalloenzyme inhibitor compounds” (Viamet Pharmaceuticals, Inc., priority 2011, dated 2014).

One may read the MIC as the least concentration at which growth counts as inhibited.

Assay [1] concerns Septoria tritici (ATCC 26517). Kind of assay: Minimum Inhibitory Concentration (MIC) vs. Septoria tritici. In kind it is cell-based. The following applies: 50% reduction in growth of S. tritici, 22° C., seven days; for MIC: Zymoseptoria tritici, ATCC26517, 168 h, read-out: Septoria Rating (MIC). How it is done:
C. Minimum Inhibitory Concentration (MIC) vs. Septoria tritici Compounds were assessed for their ability to inhibit the growth of a common strain of the fungal plant pathogen Septoria tritici (ATCC 26517) using a procedure based on a Clinical and Laboratory Standards Institute (CLSI) microdilution assay protocol for filamentous fungi. Stock solutions of the test compounds and standards were prepared in DMSO at 6400 μg/mL. Each stock solution was used to prepare a 2-fold dilution series ranging from 16 to 0.016 μg/mL (total of 11 compound concentrations) in RPMI-1640 (Roswell Park Memorial Institute) medium containing 3-(N-morpholino)propanesulfonic acid (MOPS) buffer and 2% DMSO. A 100 μL aliquot of the dilutions was added to columns 1 (16 μg/mL compound) through 11 (0.016 μg/mL compound) of a 96-well microtiter plate. This format was replicated in a second row of the microtiter plate. Thus, each microtiter plate could include 11 concentrations of four test or control compounds replicated twice. A 100 μL aliquot of RPMI-1640/MOPS/2% DMSO medium was added to column 12 (no compound control) of the microtiter plate. A fresh culture of S. tritici was used to prepare a solution of approximately 5×10^4 colony-forming units per milliliter (cfu/mL) in RPMI/MOPS medium without DMSO. A 100 μL aliquot of this solution was added to all 96 wells in the microtiter plate. […] The assay plates were incubated at 22° C. for seven days in the dark without shaking. […] In each case of Table 3, the Septoria rating scale is as follows: […]

The test system of assay [2] is Puccinia recondita tritici = Puccinia triticina. In words: Fungicidal activity vs. leaf rust on wheat plants. The assay is classed as in vivo. The following applies: 50 ppm spray on wheat (Yuma), inoculated the following day, evaluated 7-9 days later; for pest or weed control at 50 ppm: read-out: Puccinia Rating (% Disease Control @ 50 ppm). The text has this: D. Evaluation of Fungicidal Activity Vs. Leaf Rust (Causal Agent Puccinia recondita Tritici=Puccinia triticina; Bayer code PUCCRT). […] Each pot contained 3-8 seedlings. These plants were sprayed until wet with the formulated test compounds. The compounds were formulated at 50 ppm in 10 vol. % acetone plus 90 vol. % Triton X water (deionized water 99.99 wt %+0.01 wt % Triton X100), giving a “formulated test compound.” Formulated test compounds were applied to plants using a turn table sprayer fitted with two opposing air atomization nozzles which delivered approximately 1500 L/ha of spray volume. On the following day, the leaves were inoculated with an aqueous spore suspension of Puccinia recondita tritici and the plants were kept in high humidity overnight to permit spores to germinate and infect the leaf. The plants were then transferred to a greenhouse until disease developed on untreated control plants. Disease severity was evaluated 7-9 days later, depending on the speed of disease development. In each case of Table 3, the Puccinia rating scale is as follows: […]

Each structure is given as a SMILES string. In brackets after ≈: the same amount, converted by molar mass.

Take `OC(Cn1cnnn1)(c1ccc(F)cc1F)C(F)(F)c1ccc(OCc2ccc(F)cc2F)cn1` (centres unmarked) [Compound 2, 1-(5-(2,4-Difluorobenzyloxy)pyridin-2-yl)-2-(2,4-difluorophenyl)-1,1-difluoro-3-(1H-tetrazol-1-yl)propan-2-ol]: the MIC in assay [1] is at most 0.5 µg/mL. In addition, in assay [2], the pest or weed control at 50 ppm fell in the range of 80 to 100%.
For the compound `OC(Cn1cnnn1)(c1ccc(F)cc1F)C(F)(F)c1ccc(Oc2ncc(C(F)(F)F)cn2)cn1` (centres unmarked) [Compound 105, 2-(2,4-difluorophenyl)-1,1-difluoro-3-(1H-tetrazol-1-yl)-1-(5-((5-(trifluoromethyl)pyrimidin-2-yl)oxy)pyridin-2-yl)propan-2-ol], the MIC in assay [1] was at most 0.5 µg/mL. In addition, the pest or weed control at 50 ppm in assay [2] was 80 to 100%.
On to `OC(Cn1cnnn1)(c1ccc(F)cc1F)C(F)(F)c1ccc(OCC(F)(F)c2ccc(Cl)cc2)cn1` (centres unmarked) [Compound 122, 1-(5-(2-(4-chlorophenyl)-2,2-difluoroethoxy)pyridin-2-yl)-2-(2,4-difluorophenyl)-1,1-difluoro-3-(1H-tetrazol-1-yl)propan-2-ol], for which the MIC in assay [1] is at most 0.5 µg/mL. In addition, in assay [2], the pest or weed control at 50 ppm lay in the range of 80 to 100%.
For `OC(Cn1cnnn1)(c1ccc(F)cc1F)C(F)(F)c1ccc(Oc2cccc(F)c2)cn1` (centres unmarked) [Compound 77, 2-(2,4-Difluorophenyl)-1,1-difluoro-1-(5-(3-fluorophenoxy)pyridin-2-yl)-3-(1H-tetrazol-1-yl)propan-2-ol] the same measures were at most 0.5 µg/mL and 60 to 79%.
For `OC(Cn1cnnn1)(c1ccc(F)cc1F)C(F)(F)c1ccc(Oc2ccc(Br)cn2)cn1` (centres unmarked) [Compound 106, 1-(5-((5-bromopyridin-2-yl)oxy)pyridin-2-yl)-2-(2,4-difluorophenyl)-1,1-difluoro-3-(1H-tetrazol-1-yl)propan-2-ol], the MIC in assay [1] was at most 0.5 µg/mL. For the same compound, in assay [2], the pest or weed control at 50 ppm fell in the range of 80 to 100%.
As for `OC(Cn1cnnn1)(c1ccc(F)cc1F)C(F)(F)c1ccc(Oc2ccc(OC(F)(F)F)cc2)cn1` (centres unmarked) [Compound 76, 2-(2,4-Difluorophenyl)-1,1-difluoro-3-(1H-tetrazol-1-yl)-1-(5-(4-(trifluoromethoxy)phenoxy)pyridin-2-yl)propan-2-ol], in assay [1], the MIC was at most 0.5 µg/mL. Also, the pest or weed control at 50 ppm in assay [2] lay within 80 to 100%.
`OC(Cn1cnnn1)(c1ccc(F)cc1F)C(F)(F)c1ccc(Oc2ccc(C(F)(F)F)cc2)cn1` (centres unmarked) [Compound 75, 2-(2,4-Difluorophenyl)-1,1-difluoro-3-(1H-tetrazol-1-yl)-1-(5-(4-(trifluoromethyl)phenoxy)pyridin-2-yl)propan-2-ol]: in assay [1], the MIC was at most 0.5 µg/mL. Besides, the pest or weed control at 50 ppm in assay [2] fell in the range of 80 to 100%.
Turning to `OC(Cn1cnnn1)(c1ccc(F)cc1F)C(F)(F)c1ccc(Oc2ccc(F)cc2)cn1` (centres unmarked) [Compound 6, 2-(2,4-Difluorophenyl)-1,1-difluoro-1-(5-(4-fluorophenoxy)pyridin-2-yl)-3-(1H-tetrazol-1-yl)propan-2-ol], in assay [1], the MIC was at most 0.5 µg/mL. The pest or weed control at 50 ppm in assay [2] was 80 to 100%.
For `OC(Cn1cnnn1)(c1ccc(F)cc1F)C(F)(F)c1ccc(OCc2cccc(C(F)(F)F)c2)cn1` (centres unmarked) [Compound 26, 2-(2,4-Difluorophenyl)-1,1-difluoro-3-(1H-tetrazol-1-yl)-1-(5-((3-(trifluoromethyl)benzyl)oxy)pyridin-2-yl)propan-2-ol] the same measures were at most 0.5 µg/mL and 80 to 100%.
In the case of `OC(Cn1cnnn1)(c1ccc(F)cc1F)C(F)(F)c1ccc(Oc2cccc(Cl)c2)cn1` (centres unmarked) [Compound 84, 1-(5-(3-Chlorophenoxy)pyridin-2-yl)-2-(2,4-difluorophenyl)-1,1-difluoro-3-(1H-tetrazol-1-yl)propan-2-ol], the MIC in assay [1] is at most 0.5 µg/mL. Besides, the pest or weed control at 50 ppm in assay [2] was in the range of 80 to 100%.
For `OC(Cn1cnnn1)(c1ccc(F)cc1F)C(F)(F)c1ccc(OCc2cccs2)cn1` (centres unmarked) [Compound 49, 2-(2,4-Difluorophenyl)-1,1-difluoro-3-(1H-tetrazol-1-yl)-1-(5-(thiophen-2-ylmethoxy)pyridin-2-yl)propan-2-ol] the same measures were at most 0.5 µg/mL and 80 to 100%.
Turning to `OC(Cn1cnnn1)(c1ccc(F)cc1F)C(F)(F)c1ccc(OCc2ccc(Cl)c(F)c2)cn1` (centres unmarked) [Compound 27, 1-(5-((4-Chloro-3-fluorobenzyl)oxy)pyridin-2-yl)-2-(2,4-difluorophenyl)-1,1-difluoro-3-(1H-tetrazol-1-yl)propan-2-ol], the MIC in assay [1] is at most 0.5 µg/mL. In addition, the pest or weed control at 50 ppm in assay [2] was in the range of 80 to 100%.
For `OC(Cn1cncn1)(c1ccc(F)cc1F)C(F)(F)c1ccc(OCc2cccc(F)c2F)cn1` (centres unmarked) [Compound 45, 1-(5-((2,3-Difluorobenzyl)oxy)pyridin-2-yl)-2-(2,4-difluorophenyl)-1,1-difluoro-3-(1H-1,2,4-triazol-1-yl)propan-2-ol], in assay [1], the minimum inhibitory concentration (MIC) is at most 0.5 µg/mL. For the same compound, the pest or weed control at 50 ppm in assay [2] fell in the range of 80 to 100%.
Turning to `OC(Cn1cnnn1)(c1ccc(F)cc1F)C(F)(F)c1ccc(OCc2cccc(F)c2F)cn1` (centres unmarked) [Compound 23, 1-(5-((2,3-Difluorobenzyl)oxy)pyridin-2-yl)-2-(2,4-difluorophenyl)-1,1-difluoro-3-(1H-tetrazol-1-yl)propan-2-ol], the MIC in assay [1] was at most 0.5 µg/mL. In assay [2], the pest or weed control at 50 ppm lay within 80 to 100%.
For `OC(Cn1cnnn1)(c1ccc(F)cc1F)C(F)(F)c1ccc(OCc2ccccc2)cn1` (centres unmarked) [Compound 30, 1-(5-(Benzyloxy)pyridin-2-yl)-2-(2,4-difluorophenyl)-1,1-difluoro-3-(1H-tetrazol-1-yl)propan-2-ol], the “Septoria Rating (MIC)” value in assay [1] is reported as “A (≦0.5)”. Also, in assay [2], the “Puccinia Rating (% Disease Control @ 50 ppm)” value was “A (80-100)”.
Take `COc1ccc(C(F)(F)C(O)(Cn2cnnn2)c2ccc(F)cc2F)nc1` (centres unmarked) [Compound 8, 2-(2,4-Difluorophenyl)-1,1-difluoro-1-(5-methoxypyridin-2-yl)-3-(1H-tetrazol-1-yl)propan-2-ol]: in assay [1], the MIC is 0.5 to 1.5 µg/mL (≈ 1.3 to 3.91 µM). Moreover, the pest or weed control at 50 ppm in assay [2] is 80 to 100%.
Turning to `OC(Cn1cnnn1)(c1ccc(F)cc1F)C(F)(F)c1ccc(OCc2ccc(Cl)nc2)cn1` (centres unmarked) [Compound 116, 1-(5-((6-chloropyridin-3-yl)methoxy)pyridin-2-yl)-2-(2,4-difluorophenyl)-1,1-difluoro-3-(1H-tetrazol-1-yl)propan-2-ol], the MIC in assay [1] was at most 0.5 µg/mL. Besides, the pest or weed control at 50 ppm in assay [2] was 80 to 100%.
`N#Cc1ccc(Oc2ccc(C(F)(F)C(O)(Cn3cnnn3)c3ccc(Cl)cc3F)nc2)cc1F` (centres unmarked) [Compound 81, 4-((6-(2-(4-Chloro-2-fluorophenyl)-1,1-difluoro-2-hydroxy-3-(1H-tetrazol-1-yl)propyl)pyridin-3-yl)oxy)-2-fluorobenzonitrile]: the MIC in assay [1] is at most 0.5 µg/mL. Also, the pest or weed control at 50 ppm in assay [2] lay within 80 to 100%.
With `CC(C)COc1ccc(C(F)(F)C(O)(Cn2cnnn2)c2ccc(Cl)cc2F)nc1` (centres unmarked) [Compound 69, 2-(4-Chloro-2-fluorophenyl)-1,1-difluoro-1-(5-isobutoxypyridin-2-yl)-3-(1H-tetrazol-1-yl)propan-2-ol], the MIC in assay [1] is at most 0.5 µg/mL. In addition, in assay [2], the pest or weed control at 50 ppm lay in the range of 80 to 100%.
Take `N#Cc1ccc(COc2ccc(C(F)(F)C(O)(Cn3cnnn3)c3ccc(F)cc3F)nc2)s1` (centres unmarked) [Compound 73, 5-(((6-(2-(2,4-Difluorophenyl)-1,1-difluoro-2-hydroxy-3-(1H-tetrazol-1-yl)propyl)pyridin-3-yl)oxy)methyl)thiophene-2-carbonitrile]: the MIC in assay [1] was at most 0.5 µg/mL. The pest or weed control at 50 ppm in assay [2] was 80 to 100%.
`N#Cc1cccc(Oc2ccc(C(F)(F)C(O)(Cn3cnnn3)c3ccc(F)cc3F)nc2)c1` (centres unmarked) [Compound 78, 3-((6-(2-(2,4-Difluorophenyl)-1,1-difluoro-2-hydroxy-3-(1H-tetrazol-1-yl)propyl)pyridin-3-yl)oxy)benzonitrile]: the MIC in assay [1] is at most 0.5 µg/mL. The pest or weed control at 50 ppm in assay [2] fell in the range of 80 to 100%.
In the case of `N#Cc1ccc(Oc2ccc(C(F)(F)C(O)(Cn3cnnn3)c3ccc(F)cc3F)nc2)cc1F` (centres unmarked) [Compound 17, 4-((6-(2-(2,4-Difluorophenyl)-1,1-difluoro-2-hydroxy-3-(1H-tetrazol-1-yl)propyl)pyridin-3-yl)oxy)-2-fluorobenzonitrile], in assay [1], the minimal inhibitory concentration (MIC) is at most 0.5 µg/mL. The pest or weed control at 50 ppm in assay [2] was 80 to 100%.
